Assay results published in patent US10538498B2, “1,3,4-oxadiazole sulfonamide derivative compounds as histone deacetylase 6 inhibitor, and the pharmaceutical composition comprising the same” (Chong Kun Dang Pharmaceutical Corp., priority 2015, dated 2020).

Target: T1, human recombinant HDAC6 (Homo sapiens, UniProt Q9UBN7)
T1 construct: purchased Calbiochem 382180
T1 sequence (Q9UBN7 1-1215): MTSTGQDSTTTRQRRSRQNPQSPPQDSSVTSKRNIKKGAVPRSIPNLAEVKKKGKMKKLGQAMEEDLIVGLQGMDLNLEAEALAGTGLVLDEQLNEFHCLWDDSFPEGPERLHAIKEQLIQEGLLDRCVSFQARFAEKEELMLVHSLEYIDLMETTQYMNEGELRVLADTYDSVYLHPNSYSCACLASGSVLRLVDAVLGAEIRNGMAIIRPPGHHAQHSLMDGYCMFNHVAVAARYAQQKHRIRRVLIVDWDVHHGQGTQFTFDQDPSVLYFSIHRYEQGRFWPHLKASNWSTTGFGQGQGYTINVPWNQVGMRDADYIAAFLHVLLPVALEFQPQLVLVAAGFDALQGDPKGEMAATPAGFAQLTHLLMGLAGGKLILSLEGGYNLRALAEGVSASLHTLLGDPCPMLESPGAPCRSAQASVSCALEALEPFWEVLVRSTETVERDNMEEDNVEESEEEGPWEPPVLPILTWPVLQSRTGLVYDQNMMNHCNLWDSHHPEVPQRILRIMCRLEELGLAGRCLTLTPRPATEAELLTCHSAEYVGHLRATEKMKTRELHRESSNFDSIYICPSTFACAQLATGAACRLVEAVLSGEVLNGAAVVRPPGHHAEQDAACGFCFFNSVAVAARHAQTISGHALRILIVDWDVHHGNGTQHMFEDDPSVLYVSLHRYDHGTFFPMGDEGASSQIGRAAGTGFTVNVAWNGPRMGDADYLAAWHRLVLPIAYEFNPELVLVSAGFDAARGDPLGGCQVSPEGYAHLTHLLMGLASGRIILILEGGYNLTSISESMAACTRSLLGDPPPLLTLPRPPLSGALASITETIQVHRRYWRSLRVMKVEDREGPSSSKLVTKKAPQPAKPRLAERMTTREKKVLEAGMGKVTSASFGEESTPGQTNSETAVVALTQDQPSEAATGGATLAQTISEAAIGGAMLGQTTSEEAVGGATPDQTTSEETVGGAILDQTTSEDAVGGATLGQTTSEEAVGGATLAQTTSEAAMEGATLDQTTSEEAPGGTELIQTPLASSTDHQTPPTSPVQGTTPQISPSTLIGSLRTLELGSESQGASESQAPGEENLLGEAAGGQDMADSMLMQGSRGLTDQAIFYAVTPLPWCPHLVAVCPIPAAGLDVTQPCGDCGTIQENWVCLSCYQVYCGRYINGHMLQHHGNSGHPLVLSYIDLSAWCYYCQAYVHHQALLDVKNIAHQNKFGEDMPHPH
Assay: HDAC6 enzyme activity inhibition assay (HDAC Fluorimetric Drug Discovery Kit)
Assay type: biochemical
Conditions: for HDAC6 selectivity (fold): HDAC1 vs HDAC6; for IC50: same protocol as the HDAC1 enzyme activity test
Method: In order to examine the HDAC6 selectivity of the compounds of formula I of the present invention by HDAC1 and HDAC6 enzymatic activity inhibition assays, an experiment was performed using a conventional substance as a control.
HDAC enzyme activity was measured using a HDAC Fluorimetric Drug Discovery Kit (BML-AK511, 516, Enzo Life Science). For the HDAC1 enzyme activity test, human recombinant HDAC1 (BML-SE456) was used as an enzyme source, and Fluor de Lys®-“SIRT1 (BNL-KI177) was used as a substrate. A 5-fold dilution of the compound was seeded into a 96-well plate, and then 0.3 μg of the enzyme and 10 μM of the substrate were added to each well of the plate and allowed to react at 30° C. for 60 minutes. Then, Fluor de Lys®-Developer II (BML-KI176) was added thereto and allowed to react for 30 minutes, after which the fluorescence value (Ex 360, Em 460) was measured using a multi-plate reader (Flexstation 3, Molecular Device). The HDAC6 enzyme was tested using human recombinant HDAC6 (382180) (Calbiochem) according to the same protocol as the HDAC1 enzyme activity test method. Based on the resulting values, each IC50 value was calculated using GraphPad Prism4.0 program.

O=S(=O)(c1cccnc1)N(Cc1ccc(-c2nnc(C(F)F)o2)cc1F)c1ccccc1 [Compound 11252, N-(4-(5-(difluoromethyl)-1,3,4-oxadiazol-2-yl)-2-fluorobenzyl)-N-phenylpyridine-3-sulfonamide]
HDAC6 selectivity (fold): 2564 fold
IC50: 39 nM

O=S(=O)(c1cccnc1)N(Cc1ccc(-c2nnc(C(F)(F)F)o2)cc1F)c1cccc(C(F)(F)F)n1 [Compound 11253, N-(2-fluoro-4-(5-(trifluoromethyl)-1,3,4-oxadiazol-2-yl)benzyl)-N-(6-(trifluoromethyl)pyridin-2-yl)pyridine-3-sulfonamide]
HDAC6 selectivity (fold): 150 fold
IC50: 666 nM

CC(=O)c1cccc(N(Cc2ccc(-c3nnc(C(F)F)o3)cc2F)S(C)(=O)=O)c1 [Compound 11254, N-(3-acetylphenyl)-N-(4-(5-(difluoromethyl)-1,3,4-oxadiazol-2-yl)-2-fluorobenzyl)methanesulfonamide]
HDAC6 selectivity (fold): 3448 fold
IC50: 29 nM

O=S1(=O)CCC(S(=O)(=O)N(Cc2ccc(-c3nnc(C(F)(F)F)o3)cc2F)c2cccc(F)c2)CC1 [Compound 11255, N-(2-fluoro-4-(5-(trifluoromethyl)-1,3,4-oxadiazol-2-yl)benzyl)-N-(3-fluorophenyl)tetrahydro-2H-thiopyran-4-sulfonamide 1,1-dioxide]
HDAC6 selectivity (fold): 2128 fold
IC50: 47 nM

O=S1(=O)CCC(S(=O)(=O)N(Cc2ccc(-c3nnc(C(F)F)o3)cc2F)c2cccc(F)c2)CC1 [Compound 11256, N-(4-(5-(difluoromethyl)-1,3,4-oxadiazol-2-yl)-2-fluorobenzyl)-N-(3-fluorophenyl)tetrahydro-2H-thiopyran-4-sulfonamide 1,1-dioxide]
HDAC6 selectivity (fold): 7692 fold
IC50: 13 nM

CS(=O)(=O)N(Cc1ccc(-c2nnc(C(F)(F)F)o2)cc1F)c1ccc(Cl)cc1 [Compound 11271, N-(4-chlorophenyl)-N-(2-fluoro-4-(5-(trifluoromethyl)-1,3,4-oxadiazol-2-yl)benzyl)methanesulfonamide]
HDAC6 selectivity (fold): 775 fold
IC50: 129 nM

CS(=O)(=O)N(Cc1ccc(-c2nnc(C(F)(F)F)o2)cc1F)c1cncc(F)c1 [Compound 11272, N-(2-fluoro-4-(5-(trifluoromethyl)-1,3,4-oxadiazol-2-yl)benzyl)-N-(5-fluoropyridin-3-yl)methanesulfonamide]
HDAC6 selectivity (fold): 1961 fold
IC50: 51 nM

CS(=O)(=O)N(Cc1ccc(-c2nnc(C(F)(F)F)o2)cc1F)c1ccccc1F [Compound 11273, N-(2-fluoro-4-(5-(trifluoromethyl)-1,3,4-oxadiazol-2-yl)benzyl)-N-(2-fluorophenyl)methanesulfonamide]
HDAC6 selectivity (fold): 1266 fold
IC50: 79 nM

CS(=O)(=O)N(Cc1ccc(-c2nnc(C(F)F)o2)cc1F)c1ccccc1F [Compound 11274]
HDAC6 selectivity (fold): 2439 fold
IC50: 41 nM

CS(=O)(=O)N(Cc1ccc(-c2nnc(C(F)(F)F)o2)cc1F)c1ccc(F)cc1 [Compound 11275, N-(2-fluoro-4-(5-(trifluoromethyl)-1,3,4-oxadiazol-2-yl)benzyl)-N-(4-fluorophenyl)methanesulfonamide]
HDAC6 selectivity (fold): 1370 fold
IC50: 73 nM

CS(=O)(=O)N(Cc1ccc(-c2nnc(C(F)F)o2)cc1F)c1ccc(F)cc1 [Compound 11276, N-(4-(5-(difluoromethyl)-1,3,4-oxadiazol-2-yl)-2-fluorobenzyl)-N-(4-fluorophenyl)methanesulfonamide]
HDAC6 selectivity (fold): 4000 fold
IC50: 25 nM

CS(=O)(=O)N(Cc1ccc(-c2nnc(C(F)(F)F)o2)cc1F)c1ccc(Br)cc1 [Compound 11277, N-(4-bromophenyl)-N-(2-fluoro-4-(5-(trifluoromethyl)-1,3,4-oxadiazol-2-yl)benzyl)methanesulfonamide]
HDAC6 selectivity (fold): 535 fold
IC50: 187 nM

CS(=O)(=O)N(Cc1ccc(-c2nnc(C(F)F)o2)cc1F)c1ccc(Br)cc1 [Compound 11278, N-(4-bromophenyl)-N-(4-(5-(difluoromethyl)-1,3,4-oxadiazol-2-yl)-2-fluorobenzyl)methanesulfonamide]
HDAC6 selectivity (fold): 1923 fold
IC50: 52 nM

CS(=O)(=O)N(Cc1ccc(-c2nnc(C(F)(F)F)o2)cc1F)c1ccccc1Cl [Compound 11279, N-(2-chlorophenyl)-N-(2-fluoro-4-(5-(trifluoromethyl)-1,3,4-oxadiazol-2-yl)benzyl)methanesulfonamide]
HDAC6 selectivity (fold): 901 fold
IC50: 111 nM

CS(=O)(=O)N(Cc1ccc(-c2nnc(C(F)F)o2)cc1F)c1ccccc1Cl [Compound 11280, N-(2-chlorophenyl)-N-(4-(5-(difluoromethyl)-1,3,4-oxadiazol-2-yl)-2-fluorobenzyl)methanesulfonamide]
HDAC6 selectivity (fold): 1266 fold
IC50: 79 nM

CS(=O)(=O)N(Cc1ccc(-c2nnc(C(F)F)o2)cc1F)c1ccc(Cl)cc1 [Compound 11281, N-(4-chlorophenyl)-N-(4-(5-(difluoromethyl)-1,3,4-oxadiazol-2-yl)-2-fluorobenzyl)methanesulfonamide]
HDAC6 selectivity (fold): 2273 fold
IC50: 44 nM

Cc1ccc(N(Cc2ccc(-c3nnc(C(F)(F)F)o3)cc2F)S(C)(=O)=O)cc1 [Compound 11282, N-(2-fluoro-4-(5-(trifluoromethyl)-1,3,4-oxadiazol-2-yl)benzyl)-N-(p-tolyl)methanesulfonamide]
HDAC6 selectivity (fold): 781 fold
IC50: 128 nM

Cc1ccc(N(Cc2ccc(-c3nnc(C(F)F)o3)cc2F)S(C)(=O)=O)cc1 [Compound 11283, N-(4-(5-(difluoromethyl)-1,3,4-oxadiazol-2-yl)-2-fluorobenzyl)-N-(p-tolyl)methanesulfonamide]
HDAC6 selectivity (fold): 1852 fold
IC50: 54 nM

CS(=O)(=O)N(Cc1ccc(-c2nnc(C(F)F)o2)cc1F)c1cncc(F)c1 [Compound 11284, N-(4-(5-(difluoromethyl)-1,3,4-oxadiazol-2-yl)-2-fluorobenzyl)-N-(5-fluoropyridin-3-yl)methanesulfonamide]
HDAC6 selectivity (fold): 3704 fold
IC50: 27 nM

COC(=O)CCS(=O)(=O)N(Cc1ccc(-c2nnc(C(F)F)o2)cc1F)c1ccccc1 [Compound 11287, methyl 3-(N-(4-(5-(difluoromethyl)-1,3,4-oxadiazol-2-yl)-2-fluorobenzyl)-N-phenylsulfamoyl)propanoate]
HDAC6 selectivity (fold): 3448 fold
IC50: 29 nM

COCC(C)CS(=O)(=O)N(Cc1ccc(-c2nnc(C(F)F)o2)cc1F)c1ccccc1 (stereo not drawn) [Compound 11288]
HDAC6 selectivity (fold): 2128 fold
IC50: 47 nM

CCCS(=O)(=O)N(Cc1ccc(-c2nnc(C(F)F)o2)cc1F)c1ccccc1 [Compound 11289, N-(4-(5-(difluoromethyl)-1,3,4-oxadiazol-2-yl)-2-fluorobenzyl)-N-phenylpropane-1-sulfonamide]
HDAC6 selectivity (fold): 3571 fold
IC50: 28 nM

CCCCS(=O)(=O)N(Cc1ccc(-c2nnc(C(F)F)o2)cc1F)c1ccccc1 [Compound 11290, N-(4-(5-(difluoromethyl)-1,3,4-oxadiazol-2-yl)-2-fluorobenzyl)-N-phenylbutane-1-sulfonamide]
HDAC6 selectivity (fold): 2041 fold
IC50: 49 nM

O=S(=O)(C1CC1)N(Cc1ccc(-c2nnc(C(F)F)o2)cc1F)c1ccccc1 [Compound 11291, N-(4-(5-(difluoromethyl)-1,3,4-oxadiazol-2-yl)-2-fluorobenzyl)-N-phenylcyclopropanesulfonamide]
HDAC6 selectivity (fold): 3226 fold
IC50: 31 nM
